Biological target: T1, Recombinant human LTC4 synthase (Homo sapiens, UniProt Q16873)
T1 construct: made in house; host or cells: Pichia pastoris ('Piccia pastoralis' [sic])
T1 sequence (Q16873 1-150): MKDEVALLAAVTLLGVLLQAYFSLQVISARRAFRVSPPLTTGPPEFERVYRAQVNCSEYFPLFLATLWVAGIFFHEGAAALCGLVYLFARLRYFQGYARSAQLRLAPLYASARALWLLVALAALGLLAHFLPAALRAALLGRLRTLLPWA
Assay: In vitro LTC4 synthase assay (LTA4 to LTC4, HTRF detection)
Type: biochemical
Settings: for inhibition at 10 µM: 5 min, total concentration of title compound in the assay 10 μM
Protocol: In the assay, LTC4 synthase catalyses the reaction where the substrate LTA4 is converted to LTC4. Recombinant human LTC4 synthase is expressed in Piccia pastoralis and the purified enzyme is dissolved in 25 mM tris-buffer pH 7.8 supplemented with 0.1 mM glutathione (GSH) and stored at −80° C. The assay is performed in phosphate buffered saline (PBS) pH 7.4 and 5 mM GSH in 384-well plates.
The following is added chronologically to each well:
1. 48 μL LTC4 synthase in PBS with 5 mM GSH. The total protein concentration in this solution is 0.5 μg/mL. 2. 1 μL inhibitor in DMSO (final concentration 10 μM). 3. Incubation of the plate at room temperature for 10 min. 4. 1 μL LTA4 (final concentration 2.5 μM). 5. Incubation of the plate at room temperature for 5 min. 6. 10 μL of the incubation mixture is analysed using homogenous time resolved fluorescent (HTRF) detection.

Structure (SMILES)	IC50 [nM]	inhibition at 10 µM [%]
CON=C(c1ccc(N(C)c2ccc(Cl)cc2)cc1)c1cc(Oc2ccccc2)cc(C(=O)O)c1 (mixture of isomers) [Example 18, 3-({4-[(4-Chlorophenyl)(methyl)amino]phenyl}(methoxyimino)methyl)-5-phenoxybenzoic acid]	745	
CCCCCCC(=O)Nc1cc(C(=O)O)cc(C(=O)c2ccc(N(C)c3ccc(Cl)cc3)cc2)c1 [Example 1:2, 3-{4-[(4-Chlorophenyl)(methyl)amino]benzoyl}-5-heptylamidobenzoic acid]	139	94
COc1ccc(NC(=O)c2cc(C(=O)O)cc(C(=O)c3ccc(N(C)c4ccc(Cl)cc4)cn3)c2)cc1 [2:6, 3-{5-[(4-Chlorophenyl)(methyl)amino]picolinoyl}-5-(4-methoxyphenyl-carbamoyl)benzoic acid]	744	
CN(c1ccc(Cl)cc1)c1ccc(C(=O)c2cc(C(=O)O)cc(C(=O)c3ccccc3)c2)nc1 [Example 14, 3-Benzoyl-5-{5-[(4-chlorophenyl)(methyl)amino]picolinoyl}benzoic acid]	146	
COc1ccc(Nc2cc(C(=O)O)cc(C(=O)c3ccc(N(C)c4ccc(Cl)cc4)cc3)c2)cc1OC [10:7, 3-{4-[(4-Chlorophenyl)(methyl)amino]benzoyl}-5-(3,4-dimethoxyphenyl-amino)benzoic acid]	483	
Cc1ccccc1CNc1cc(C(=O)O)cc(C(=O)c2ccc(N(C)c3ccc(Cl)cc3)cc2)c1 [10:16, 3-{4-[(4-Chlorophenyl)(methyl)amino]benzoyl}-5-(2-methylbenzylamino)-benzoic acid]	284	
C=CCCC(=O)N(c1ccccc1)c1cc(C(=O)O)cc(C(=O)c2ccc(N(C)c3ccc(Cl)cc3)cc2)c1 [10:32, 3-{4-[(4-Chlorophenyl)(methyl)amino]benzoyl}-5-[(N-phenyl)pent-4-enamido]-benzoic acid]	662	
CN(Cc1ccc2c(c1)OCO2)c1cc(C(=O)O)cc(C(=O)c2ccc(N(C)c3ccc(Cl)cc3)cn2)c1 [9:14, 3-{5-[(4-Chlorophenyl)(methyl)amino]picolinoyl}-5-[(3,4-methylenedioxy-benzyl)(methyl)amino]benzoic acid]	103	
COc1ccc(COc2cc(C(=O)O)cc(C(=O)c3ccc(N(C)c4ccc(Cl)cc4)cn3)c2)cc1 [Example 11:1, 3-{5-[(4-Chlorophenyl)(methyl)aminol]picolinoyl}-5-(4-methoxybenzyloxy)benzoic acid]	887	
CN(c1ccc(Cl)cc1)c1ccc(C(=O)c2cc(Nc3ccccc3)cc(C(=O)O)c2)nc1 [9:11, 3-{5-[(4-Chlorophenyl)(methyl)amino]picolinoyl}-5-(phenylamino)benzoic acid]	61	
CN(c1ccc(Cl)cc1)c1cc(C(=O)O)cc(C(=O)c2ccc(N(CC3CC3)c3ccc(Cl)cc3)cn2)c1 [Example 9:16, 3-{5-[(4-Chlorophenyl)(cyclopropylmethyl)amino]picolinoyl}-5-[(4-chlorophenyl)-(methyl)amino]benzoic acid]	17	
CN(c1ccc(Cl)cc1)c1ccc(C(=O)c2cc(NCc3ccc(Cl)cc3)cc(C(=O)O)c2)cc1 [10:20, 3-(4-Chlorobenzylamino)-5-{4-[(4-chlorophenyl)(methyl)amino]benzoyl}-benzoic acid]	118	
CCCCOc1ccc(S(=O)(=O)Nc2cc(C(=O)O)cc(C(=O)c3ccc(Nc4ccc(Cl)cc4)cc3)c2)cc1 [Example 7, 3-(4-Butoxybenzensulfonamido)-5-[4-(4-chlorophenylamino)benzoyl]benzoic acid]	89	98
CN(c1ccc(Cl)cc1)c1ccc(C(=O)c2cc(C(=O)O)cc(N3CCc4ccccc4C3)c2)nc1 [9:13, 3-{5-[(4-Chlorophenyl)(methyl)amino]picolinoyl}-5-(1,2,3,4-tetrahydroiso-quinolin-2-yl)benzoic acid]	531	
CN(c1ccc(Cl)cc1)c1ccc(C(=O)c2ccc(Nc3ccc(Cl)cc3)cc2)c(C(=O)O)c1 [6:3, 2-[4-(4-Chlorophenylamino)benzoyl]-5-[(4-chlorophenyl)(methyl)amino]-benzoic acid]	224	99
CN(c1ccc(Cl)cc1)c1ccc(C(=O)c2cc(C(=O)O)cc(N(CCCC(F)(F)F)c3ccccc3)c2)cc1 [10:37, 3-{4-[(4-Chlorophenyl)(methyl)amino]benzoyl}-5-[phenyl(4,4,4-trifluorobutyl)-amino]benzoic acid]	252	
CN(c1ccc(Cl)cc1)c1ccc(C(=O)c2cc(Nc3ccccc3OC(F)F)cc(C(=O)O)c2)cc1 [10:12, 3-{4-[(4-Chlorophenyl)(methyl)amino]benzoyl}-5-(2-difluoromethoxyphenyl-amino)benzoic acid]	110	
COc1cccc(C(=O)c2cc(C(=O)O)cc(C(=O)c3ccc(N(C)c4ccc(Cl)cc4)cn3)c2)c1 [Example 15, 3-{5-[(4-Chlorophenyl)(methyl)amino]picolinoyl}-5-(3-methoxybenzoyl)benzoic acid]	173	
CN(c1ccc(Cl)cc1)c1ccc(C(=O)c2cc(C(=O)O)cc(C(=O)Nc3cc(F)ccc3F)c2)cc1 [2:15, 3-{4-[(4-Chlorophenyl)(methyl)amino]benzoyl}-5-(2,5-difluorophenyl-carbamoyl)benzoic acid]	682	
CN(c1ccc(Cl)cc1)c1ccc(C(=O)c2cc(NC(=O)c3ccccc3)cc(C(=O)O)c2)nc1 [2:8, 3-Benzamido-5-{5-[(4-chlorophenyl)(methyl)amino]picolinoyl}benzoic acid]	214	

The remaining molecules from weak to strong by IC50, led by results:

IC50 [nM]	inhibition at 10 µM [%]	Structure (SMILES)
1820		CC(=O)N(c1cc(C(=O)O)cc(C(=O)c2ccc(N(C)c3ccc(Cl)cc3)cn2)c1)C1CCCCC1 [9:43, 3-{5-[(4-Chlorophenyl)(methyl)amino]picolinoyl}-5-(N-cyclohexylacetamido)-benzoic acid]
706		CN(c1ccc(Cl)cc1)c1ccc(C(=O)c2cc(C(=O)O)cc(C(=O)Nc3ccccc3OC(F)F)c2)cc1 [2:13, 3-{4-[(4-Chlorophenyl)(methyl)amino]benzoyl}-5-[2-(difluoromethoxy)phenyl-carbamoyl]benzoic acid]
549	100	CN(c1ccc(Cl)cc1)c1ccc(C(=O)c2ccc(NS(=O)(=O)c3ccc(OC(F)(F)F)cc3)cc2)c(C(=O)O)c1 [Example 5, 5-[(4-Chlorophenyl)(methyl)amino]-2-[4-(4-trifluoromethoxybenzenesulfonamido)-benzoyl]benzoic acid]
466		COCC(=O)N(c1ccccc1)c1cc(C(=O)O)cc(C(=O)c2ccc(N(C)c3ccc(Cl)cc3)cn2)c1 [9:26, 3-{5-[(4-Chlorophenyl)(methyl)amino]picolinoyl}-5-(2-methoxy-N-phenylacet-amido)benzoic acid]
462		CN(c1ccc(Cl)cc1)c1ccc(C(=O)c2cc(OCc3ccccc3)cc(C(=O)O)c2)nc1 [11:2, 3-Benzyloxy-5-{5-[(4-chlorophenyl)(methyl)amino]picolinoyl}benzoic acid]
259		CN(c1ccc(Cl)cc1)c1ccc(C(=O)c2cc(C(=O)O)cc(-n3ccc4ccccc43)c2)nc1 [Example 16, 3-{5-[(4-Chlorophenyl)(methyl)aminol]picolinoyl}-5-(1-indolyl)benzoic acid]
199		CC(=O)N(c1ccccc1)c1cc(C(=O)O)cc(C(=O)c2ccc(N(C)c3ccc(Cl)cc3)cn2)c1 [Example 9:23, 3-{5-[(4-Chlorophenyl)(methyl)amino]picolinoyl}-5-(N-phenylacetamido)benzoic acid]
170		CN(Cc1ccc(Cl)cc1)c1cc(C(=O)O)cc(C(=O)c2ccc(N(C)c3ccc(Cl)cc3)cn2)c1 [9:12, 3-((4-Chlorobenzyl)(methyl)amino)-5-{5-[(4-chlorophenyl)(methyl)amino]-picolinoyl}benzoic acid]
162		CN(c1ccc(Cl)cc1)c1ccc(C(=O)c2cc(Nc3ccccc3F)cc(C(=O)O)c2)cc1 [10:9, 3-{4-[(4-Chlorophenyl)(methyl)amino]benzoyl}-5-(2-fluorophenylamino)-benzoic acid]
159		CN(c1ccc(Cl)cc1)c1ccc(C(=O)c2cc(Nc3ccc(C(F)(F)F)cc3)cc(C(=O)O)c2)cc1 [10:17, 3-{4-[(4-Chlorophenyl)(methyl)amino]benzoyl}-5-(4-trifluoromethylphenyl-amino)benzoic acid]
64		CN(c1ccc(Cl)cc1)c1ccc(C(=O)c2cc(Nc3ccc(Cl)cc3)cc(C(=O)O)c2)cc1 [Example 10:2, 3-{4-[(4-Chlorophenyl)(methyl)amino]benzoyl}-5-(4-chlorophenylamino)-benzoic acid]
61		CN(c1ccc(Cl)cc1)c1ccc(C(=O)c2cc(Oc3ccccc3)cc(C(=O)O)c2)cc1 [8:11, 3-{4-[(4-Chlorophenyl)(methyl)amino]benzoyl}-5-phenoxybenzoic acid]
50		CN(c1ccc(Cl)cc1)c1ccc(C(=O)c2cc(C(=O)O)cc(N(CC3(C)COC3)c3ccccc3)c2)nc1 [9:15, 3-{5-[(4-Chlorophenyl)(methyl)amino]picolinoyl}-5-{[(3-methyloxetan-3-yl)-methyl](phenyl)amino}benzoic acid]
43		C#CCN(c1ccccc1)c1cc(C(=O)O)cc(C(=O)c2ccc(N(C)c3ccc(Cl)cc3)cn2)c1 [9:8, 3-{5-[(4-Chlorophenyl)(methyl)amino]picolinoyl}-5-[phenyl(prop-2-ynyl)amino]-benzoic acid]
